# Assays:
# 5-HT1A receptor [1] = biological target: T1, 5-HT1A receptor (Sus scrofa, UniProt A0A4X1UTF5); assay: Test on affinity for serotonin 1A receptor ([3H]MPPF, hippocampus membrane fraction); format: binding, swine; details: low affinity IC50 divided by high affinity IC50; not more than 1 = no intrinsic activity, not less than 2 = intrinsic activity
# T1 construct: to a swine hippocampus membrane fraction; from tissue; host or cells: swine hippocampus
# T1 sequence (A0A4X1UTF5 1-422): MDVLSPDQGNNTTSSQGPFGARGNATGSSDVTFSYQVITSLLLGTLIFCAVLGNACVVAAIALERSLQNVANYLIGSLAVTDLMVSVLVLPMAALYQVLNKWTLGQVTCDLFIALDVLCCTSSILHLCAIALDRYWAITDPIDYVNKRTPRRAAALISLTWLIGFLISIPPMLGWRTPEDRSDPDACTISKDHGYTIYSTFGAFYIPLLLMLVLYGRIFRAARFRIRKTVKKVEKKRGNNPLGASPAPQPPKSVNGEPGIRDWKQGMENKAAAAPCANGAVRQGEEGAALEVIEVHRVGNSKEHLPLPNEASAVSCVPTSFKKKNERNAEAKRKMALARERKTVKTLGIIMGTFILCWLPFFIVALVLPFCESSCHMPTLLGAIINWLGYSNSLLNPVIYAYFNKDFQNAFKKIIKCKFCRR
# Protocol: The affinity of test compounds for the 5-HT1A receptor was determined by an experiment for inhibition of a test compound against the binding of [^3H]-4-(2′-Methoxy)phenyl-1-[2′-(N-2″-pyridinyl)-p-fluorobenzamido]ethyl-piperazine (MPPF), selectively bound to the 5-HT1A receptor, to a swine hippocampus membrane fraction. The 5-HT1A receptor, which is a G protein binding receptor, is brought to a G protein bound state upon the addition of MgCl2, and is brought to a G protein nonbound state upon the addition of guanylylimidodiphosphate (Gpp(NH)p). It is generally known that a G protein receptor agonist has stronger affinity for the G protein bound receptor depending upon the level of the intrinsic activity. Accordingly, the affinity of a test compound for the receptor in a G protein nonbound state and the affinity of the test compound for the receptor in a G protein bound state were determined and compared with each other to estimate the level of the intrinsic activity of the test compound.
# The greater this value, the higher the intrinsic activity.
# Swine hippocampus was homogenized in an ice-cooled 50 mM Tris hydrochloride buffer (pH 7.4; hereinafter referred to as buffer A). The suspension was centrifuged at 40,000×g for 15 min. The resultant sediment was suspended in buffer A, and the suspension was then centrifuged at 40,000×g for 15 min. The same procedure was further repeated twice or three times. The finally obtained sediment was suspended in buffer A in an amount of about ten times larger than the wet weight of the swine hippocampus to prepare a membrane fraction which was then stored at −80° C. until use.
# A mixture (0.5 mL) for incubation, containing an appropriate amount of the membrane fraction, a test compound in a desired concentration, MgCl2 (final concentration: 10 mM) or Gpp(NH)p (final concentration: 1 mM), [^3H]MPPF (final concentration: 0.5 nM), dimethyl sulfoxide (final concentration: 1% (v/v)), and 50 mM Tris hydrochloride buffer (pH 7.4), was provided. Upon the addition of the membrane fraction, a reaction started, and the mixture was incubated at 37° C. for 30 min. After the incubation, the incubated mixture was suction filtered through a glass filter with a cell harvester. After washing the glass filter with ice-cooled buffer A, the radioactivity bound to the receptor was measured with a liquid scintillation counter. The binding detected in the presence of 10 μM WAY-100,635. was regarded as nonspecific binding.
# rat motor neuron cells [2] = assay: Inhibition of 5HT toxicity in rat motor neuron primary pure culture system; format: cell-based; details: survival three days after seeding; for Inhibition of 5HT toxicity (survival rate): antagonist added 5 to 10 min before 5HT, FIG. 2, FIG. 3
# Protocol: (§1) Based on the results of cell measurement, the rat motor neuron cells were diluted with the culture solution to 1.1 to 1.2×10^4 cells/mL. Greiner 4-well dishes previously coated with poly-L-ornithine/laminin were seeded with the cell suspension at 90 μL/well with a 1 mL Pipetman. […] The initial viable cell count was measured three hr after the addition of serotonin (5HT). The viable cell count was again measured three days after the cell seeding, and the survival rate was calculated based on the initial viable cell count. The cell count measurement was carried out under a phase-contrast microscope using marks previously applied on the backside of the Greiner 4-well dish as a reference.
# as §1
# 5-HT1A receptor [3] = biological target: T1, 5-HT1A receptor; details: receptor in G protein bound state (MgCl2 10 mM), 0.5 nM [3H]MPPF, swine hippocampus membrane; WO 2005/108389; read-out: High affinity; cited from earlier work
# serotonin 2 receptor = biological target: T2, serotonin 2 receptor (Mus musculus, UniProt P35363); assay: Mouse head twitch behavior test (tryptamine-induced); format: in vivo; details: tryptamine 30 mg/kg i.v.; test compound 15 min before; FIG. 7
# T2 construct: known to induce mouse head twitch behavior through a serotonin 2 receptor; from tissue; host or cells: living mouse (in vivo behaviour test)
# T2 sequence (P35363 whole entry): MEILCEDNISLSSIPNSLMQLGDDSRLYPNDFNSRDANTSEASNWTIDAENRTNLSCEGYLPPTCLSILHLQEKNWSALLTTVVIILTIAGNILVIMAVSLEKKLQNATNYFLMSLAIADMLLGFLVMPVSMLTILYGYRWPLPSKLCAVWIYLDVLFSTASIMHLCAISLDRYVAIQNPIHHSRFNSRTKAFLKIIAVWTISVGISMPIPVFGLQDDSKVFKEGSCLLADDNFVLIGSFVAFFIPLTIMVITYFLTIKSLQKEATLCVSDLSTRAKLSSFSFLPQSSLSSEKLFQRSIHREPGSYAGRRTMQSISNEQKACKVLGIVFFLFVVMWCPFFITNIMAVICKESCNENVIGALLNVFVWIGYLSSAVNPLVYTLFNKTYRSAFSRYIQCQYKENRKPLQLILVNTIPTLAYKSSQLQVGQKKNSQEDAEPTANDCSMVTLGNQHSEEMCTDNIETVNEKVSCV
# Protocol: The serotonin 2 receptor antagonist activity of test compounds was determined by a mouse head twitch behavior test. Tryptamine is a serotonin 2 receptor agonist and is known to induce mouse head twitch behavior through a serotonin 2 receptor. Accordingly, the serotonin 2 receptor antagonist activity of the test compounds can be evaluated based on the head twitch behavior by tryptamine. Tryptamine was administered intravenously to mice at 30 mg/kg, and the number of times of appearance of the head twitch within one min after the start of administration counted. The test compounds (compounds 1 and 4) were administered 15 min before the intravenous administration of tryptamine.
# [^3H]8-hydroxy-dipropylaminotetralin is known to be used for the measurement of binding of test compounds to serotonin 1A receptors (European Journal of Pharmacology, 90, p. 151-153, 1983.). Further, [^3H]ketanserin is known to be used for the measurement of binding of test compounds to serotonin 2A receptors (Brian Dean and Wendy Hayes, Schizophrenia Research, 21, p. 133-139, 1996.). Furthermore, the test on mouse head twitch behavior with tryptamine is known to be used for the measurement of the serotonin 2 receptor antagonist activity of test compounds (Yamada J., et al., European Journal of Pharmacology, 140, p. 323-330, 1987; and Yamada J., et al., Neuropharmacology, 26, p. 49-53, 1987.).
# rat motor neuron cells [4] = assay: Evaluation of toxicity of 5HT in rat motor neuron primary pure culture system; format: cell-based
# Protocol: Rat motor neuron cells were subjected to pure culture in the presence of 30 ng/mL BDNF for three days, and toxicity of serotonin (5HT) was evaluated.
# The rat motor neuron primary pure culture was carried out by a method which is modification of Nishijima et al. method (Nishijima C. et al., J Neurochem 76, 383-390(2001)) by incorporating a purification method and the like in the Nishijima et al. method.
# A necessary number of Greiner-4-well dishes (10 mm i.d. wells) (Greiner bio-one) were provided, and 0.15 M sodium borate buffer (pH 8.3) containing 0.5 mg/mL poly-L-ornithine was added at 100 μL/well followed by standing at 4° C. overnight. Ornithine was removed by suction, the residue was washed three times with PBS(−), and L-15 (CO2) containing 10 μg/mL laminin (Gibco-BRL) was spread at 50 μL/well. […]
# Wistar pregnant rats (fifteen days pregnant) (Tokyo Laboratory Animals Science Co., Ltd.) were etherized and were then sacrificed by cervical dislocation. […] One hr after the start of the culture, serotonin (serotonin creatinine sulfate complex, Sigma) or glutamate (Sigma) was added thereto, and, three hr after that, the initial viable cell count was measured. The viable cell count was again measured three days after the cell seeding, and the survival rate was calculated based on the initial viable cell count. […]
structure (smiles),measurement,setting,value
"COc1ccc2nc(C)oc2c1CCN1CCC(n2ccc3ccc(C(N)=O)cc32)CC1 [Compound 12, 1-{1-[2-(6-methoxy-2-methylbenzoxazol-7-yl)ethyl]piperidin-4-yl}-1H-indole-6-carboxamide]",L/H ratio,5-HT1A receptor [1],0.7
"COc1cc2onc(C)c2cc1CCN1CCC(n2ccc3ccc(C(N)=O)cc32)CC1 [Compound 13, 1-{1-[2-(6-methoxy-3-methylbenzo[d]isoxazol-5-yl)ethyl]piperidin-4-yl}-1H-indole-6-carboxamide]",L/H ratio,5-HT1A receptor [1],1.3
COc1ccccc1N1CCN(CCCCN2C(=O)c3ccccc3C2=O)CC1 [NAN-190],Inhibition of 5HT toxicity (survival rate),rat motor neuron cells [2],inhibited
"COc1cc2c(cc1CCN1CCC(n3ccc4ccc(C(N)=O)cc43)CC1)OCCO2 [Compound 15, 1-{1-[2-(7-methoxy-2,3-dihydrobenzo[1,4]dioxin-6-yl)ethyl]piperidin-4-yl}-1H-indole-6-carboxamide]",L/H ratio,5-HT1A receptor [1],0.9
"COc1ccc2c(c1CCN1CCC(n3ccc4ccc(C(N)=O)cc43)CC1)OC(C)(C)CC2=O [Compound 10, 1-{1-[2-(7-methoxy-2,2-dimethyl-4-oxochroman-8-yl)ethyl]piperidin-4-yl}-1H-indole-6-carboxamide]",IC50,5-HT1A receptor [3],0.13 nM
same,L/H ratio,5-HT1A receptor [1],0.8
"CNC(=O)Cc1ccc2ccn(C3CCN(CCc4ccccc4F)CC3)c2c1 [Compound 1, N-methyl-{1-[1-(2-fluorophenethyl)piperidin-4-yl]-1H-indol-6-yl}acetamide]",Concentration at which 5HT excitotoxicity is inhibited,"rat motor neuron cells [2]; compound added 5 to 10 min before 5HT, FIG. 5, FIG. 6",not less than 0.1 nM
same,Serotonin 2A receptor antagonist activity (head twitch by tryptamine),serotonin 2 receptor,excellent serotonin 2A receptor antagonist activity
"CNC(=O)c1ccc2ccn(C3CCN(CCc4c(OC)ccc5c4OC(C)(C)CC5=O)CC3)c2c1 [Compound 9, 1-{1-[2-(7-methoxy-2,2-dimethyl-4-oxochroman-8-yl)ethyl]piperidin-4-yl}-N-methyl-1H-indole-6-carboxamide]",IC50,5-HT1A receptor [3],0.2 nM
same,L/H ratio,5-HT1A receptor [1],0.8
"COc1cc2oc(C)nc2cc1CCN1CCC(n2ccc3ccc(C(N)=O)cc32)CC1 [Compound 11, 1-{1-[2-(6-methoxy-2-methylbenzoxazol-5-yl)ethyl]piperidin-4-yl}-1H-indole-6-carboxamide]",L/H ratio,5-HT1A receptor [1],0.9
OC(c1ccccc1)C1CCN(CCc2ccccc2)CC1 (stereo not shown) [MDL-11939],Inhibition of 5HT toxicity (survival rate),rat motor neuron cells [2],inhibited
NCCOB(c1ccccc1)c1ccccc1 [Compound 2-APB],Inhibition of 5HT toxicity (survival rate),rat motor neuron cells [2],inhibition of 5HT excitotoxicity
"COc1ccc2c(C)noc2c1CCN1CCC(n2ccc3ccc(C(N)=O)cc32)CC1 [Compound 14, 1-{1-[2-(6-methoxy-3-methylbenzo[d]isoxazol-7-yl)ethyl]piperidin-4-yl}-1H-indole-6-carboxamide]",L/H ratio,5-HT1A receptor [1],1.6
"NCCc1c[nH]c2ccc(O)cc12 [Compound 5HT, serotonin]",5HT toxicity compared with glutamate toxicity,"rat motor neuron cells [4]; serum-free culture solution, FIG. 1B",comparable with glutamate toxicity
same,Toxicity of 5HT (survival rate of motor neuron cells),"rat motor neuron cells [4]; three days culture, 30 ng/mL BDNF, FIG. 1A",showed toxicity in a concentration-dependent manner
